Assay results from ChEMBL document CHEMBL3351872, “2- and 3-substituted imidazo[1,2-a]pyrazines as inhibitors of bacterial type IV secretion” (Bioorg Med Chem, 2014).

Experiment: Inhibition of Helicobacter pylori VirB11 HP0525 ATPase expressed in Escherichia coli assessed as reduction in inorganic phosphate release by colorimetric ATPase assay

| IC50 | SMILES |
| --- | --- |
| 77 µM | Cc1ccc(S(=O)(=O)NCCNc2nc(Br)cn3cc(-c4ccc5ccccc5c4)nc23)cc1 |
| 77 µM | Cc1ccc(S(=O)(=O)Nc2nccn3c(-c4ccc5ccccc5c4)cnc23)cc1 |
| 6 µM | Cc1ccc(S(=O)(=O)Nc2ccc(Nc3nc(Br)cn4cc(-c5ccc6ccccc6c5)nc34)cc2)cc1 |
